Measured values from ChEMBL document CHEMBL4422619, “Continued exploration of 1,2,4-oxadiazole periphery for carbonic anhydrase-targeting primary arene sulfonamides: Discovery of subnanomolar inhibitors of membrane-bound hCA IX isoform that selectively kill cancer cells in hypoxic environment” (Eur J Med Chem, 2019).
pKi: −log10 of the molar value. The source made the active and inactive calls. No cut-off for these calls is given here.

The compounds below were run against Carbonic anhydrase 9 (Homo sapiens, UniProt Q16790). Conditions: not given.

Row | pKi | SMILES
1 | 6.56 | COc1cc(S(N)(=O)=O)ccc1-c1noc(-c2ccc(C#N)cc2)n1
2 | 7.88 | COc1cc(S(N)(=O)=O)ccc1-c1noc(-c2ccccc2)n1
3 | 6.61 | COc1cccc(-c2noc(-c3ccc(S(N)(=O)=O)cc3)n2)c1
4 | 8.17 | NS(=O)(=O)c1ccc(-c2nc(-c3ccccc3)no2)cc1
5 | 7.92 | COc1cc(S(N)(=O)=O)ccc1-c1noc(-c2cccnc2)n1

Continued, compound first:

Row | SMILES | pKi
6 | COc1ccccc1-c1noc(-c2ccc(S(N)(=O)=O)cc2)n1 | 7.68
7 | NS(=O)(=O)c1ccc(-c2noc(-c3ccccn3)n2)cc1 | 9.51
8 | Cc1nc(-c2csc(S(N)(=O)=O)c2)no1 | 8.80
9 | NS(=O)(=O)c1ccc(-c2noc(C3CC3)n2)cc1 | 8.72
10 | COc1cc(S(N)(=O)=O)ccc1-c1noc(-c2cccs2)n1 | 7.80

Each compound was assayed against Carbonic anhydrase 1 (Homo sapiens, UniProt P00915) (assay: Inhibition of human carbonic anhydrase 1 assessed as reduction in CO2 hydration after 15 mins by phenol red staining-based stopped flow assay). Conditions: not given.
Chain of Carbonic anhydrase 1 (P00915 whole entry): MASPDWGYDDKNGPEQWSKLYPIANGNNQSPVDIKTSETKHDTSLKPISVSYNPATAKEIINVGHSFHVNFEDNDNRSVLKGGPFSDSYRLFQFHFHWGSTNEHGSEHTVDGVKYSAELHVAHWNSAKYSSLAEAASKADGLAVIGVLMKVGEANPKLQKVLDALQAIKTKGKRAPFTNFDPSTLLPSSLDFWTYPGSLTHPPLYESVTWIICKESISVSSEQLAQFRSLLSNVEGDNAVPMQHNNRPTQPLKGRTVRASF

Row | pKi | SMILES
11 | 6.11 | COc1cc(S(N)(=O)=O)ccc1-c1noc(-c2ccc(C#N)cc2)n1
12 | 6.34 | COc1cc(S(N)(=O)=O)ccc1-c1noc(-c2ccccc2)n1
13 | 5.99 | COc1cc(S(N)(=O)=O)ccc1-c1noc(-c2cccnc2)n1

Continued, compound first:

Row | SMILES | pKi
14 | NS(=O)(=O)c1ccc(-c2noc(-c3ccccn3)n2)cc1 | 7.43
15 | Cc1nc(-c2csc(S(N)(=O)=O)c2)no1 | 8.09
16 | NS(=O)(=O)c1ccc(-c2noc(C3CC3)n2)cc1 | 8.11

Each compound was assayed on ARPE-19 (assay: Antiproliferative activity against human ARPE19 cells at 30 to 300 uM after 48 hrs in presence of normoxic condition by MTT assay). Conditions: arpe-19, 48 h.
Assay type: cell-based

Row | SMILES | Activity
17 | NS(=O)(=O)c1cccc(-c2noc(C3CC3)n2)c1 | Non-Toxic

These compounds were tested against Carbonic anhydrase 12 (Homo sapiens, UniProt O43570). Conditions: not given.
Chain of Carbonic anhydrase 12 (O43570 whole entry): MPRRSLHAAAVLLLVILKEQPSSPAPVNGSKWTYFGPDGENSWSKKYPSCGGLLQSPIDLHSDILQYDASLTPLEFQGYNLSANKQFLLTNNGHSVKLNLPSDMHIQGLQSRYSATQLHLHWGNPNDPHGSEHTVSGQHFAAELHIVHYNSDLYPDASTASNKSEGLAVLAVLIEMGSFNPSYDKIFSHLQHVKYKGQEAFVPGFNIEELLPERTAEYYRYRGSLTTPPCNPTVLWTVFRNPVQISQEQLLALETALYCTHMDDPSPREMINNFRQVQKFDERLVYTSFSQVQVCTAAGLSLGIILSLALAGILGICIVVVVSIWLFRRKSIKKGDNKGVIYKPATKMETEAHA

Row | pKi | SMILES
18 | 7.48 | COc1cc(S(N)(=O)=O)ccc1-c1noc(-c2ccc(C#N)cc2)n1
19 | 7.48 | COc1cc(S(N)(=O)=O)ccc1-c1noc(-c2ccccc2)n1
20 | 7.77 | COc1cc(S(N)(=O)=O)ccc1-c1noc(-c2cccnc2)n1

The remaining lines, values behind:

Row | SMILES | pKi
21 | NS(=O)(=O)c1ccc(-c2noc(-c3ccccn3)n2)cc1 | 8.02
22 | Cc1nc(-c2csc(S(N)(=O)=O)c2)no1 | 8.00
23 | NS(=O)(=O)c1ccc(-c2noc(C3CC3)n2)cc1 | 7.01

The compounds below were run against Carbonic anhydrase 2 (Homo sapiens, UniProt P00918) (assay: Inhibition of human carbonic anhydrase 2 assessed as reduction in CO2 hydration after 15 mins by phenol red staining-based stopped flow assay). Conditions: not given.

Row | pKi | SMILES
24 | 6.23 | COc1cc(S(N)(=O)=O)ccc1-c1noc(-c2ccc(C#N)cc2)n1
25 | 8.06 | COc1cc(S(N)(=O)=O)ccc1-c1noc(-c2ccccc2)n1
26 | 9.32 | COc1cccc(-c2noc(-c3ccc(S(N)(=O)=O)cc3)n2)c1
27 | 8.74 | NS(=O)(=O)c1ccc(-c2nc(-c3ccccc3)no2)cc1
28 | 6.57 | COc1cc(S(N)(=O)=O)ccc1-c1noc(-c2cccnc2)n1

The next lines start with the compound.

Row | SMILES | pKi
29 | COc1ccccc1-c1noc(-c2ccc(S(N)(=O)=O)cc2)n1 | 9.29
30 | NS(=O)(=O)c1ccc(-c2noc(-c3ccccn3)n2)cc1 | 9.03
31 | Cc1nc(-c2csc(S(N)(=O)=O)c2)no1 | 9.04
32 | NS(=O)(=O)c1ccc(-c2noc(C3CC3)n2)cc1 | 8.39
33 | COc1cc(S(N)(=O)=O)ccc1-c1noc(-c2cccs2)n1 | 7.04

Each compound was assayed on ARPE-19 (assay: Antiproliferative activity against human ARPE19 cells at 30 to 300 uM after 48 hrs in presence of hypoxic condition by MTT assay). Conditions: arpe-19, 48 h.
Assay type: cell-based

Row | SMILES | Activity
34 | NS(=O)(=O)c1cccc(-c2noc(C3CC3)n2)c1 | Non-Toxic

These compounds were tested on PANC-1 (assay: Antiproliferative activity against human PANC1 cells at 30 to 300 uM after 48 hrs in presence of hypoxic condition by MTT assay). Conditions: not given.
Assay type: functional, cell-based

Row | SMILES | Activity
35 | NS(=O)(=O)c1cccc(-c2noc(C3CC3)n2)c1 | Active

Each compound was assayed on PANC-1 (assay: Antiproliferative activity against human PANC1 cells at 30 to 300 uM after 48 hrs in presence of normoxic condition by MTT assay). Conditions: not given.
Assay type: functional, cell-based

Row | SMILES | Activity
36 | NS(=O)(=O)c1cccc(-c2noc(C3CC3)n2)c1 | Active
